According to the NIST ThermoML archive (doi:10.1016/j.fluid.2015.02.014):
Numbers after ± are expanded uncertainties.

Conditions: Liquid, Closed cell (Static) method

Row | Compound | vapor or sublimation pressure (283.15 K) [kPa] | vapor or sublimation pressure (293.15 K) [kPa] | vapor or sublimation pressure (303.15 K) [kPa] | vapor or sublimation pressure (313.15 K) [kPa] | vapor or sublimation pressure (323.15 K) [kPa]
1 | C=C(F)C(F)(F)F [2,3,3,3-tetrafluoro-1-propene] | 437.9 ± 1.2 | 591.5 ± 1.3 | 782.9 ± 1.5 | 1018.2 ± 1.8 | 1302.4 ± 2.1
2 | CCF [fluoroethane] | 601.2 ± 1.3 | 805.6 ± 1.5 | 1058.8 ± 1.8 | 1365.8 ± 2.2 | 1735.2 ± 2.7
